ChEMBL document CHEMBL2176989, “Design, synthesis, and pharmacological evaluation of piperidin-4-yl amino aryl sulfonamides: novel, potent, selective, orally active, and brain penetrant 5-HT₆ receptor antagonists” (J Med Chem, 2012)

Legend:
[1] = molecular target: 5-hydroxytryptamine receptor 6 (Homo sapiens) (UniProt P50406); assay: Antagonist activity at human recombinant 5HT6 receptor expressed in CHO cells assessed as inhibition of 5HT-induced luciferase activity after 4 hrs by reporter gene assay relative to control; assay type: functional, cell-based
[2] = molecular target: 5-hydroxytryptamine receptor 6 (Homo sapiens) (UniProt P50406); assay: Antagonist activity at human recombinant 5HT6 receptor expressed in CHO cells assessed as inhibition of 5HT-induced luciferase activity after 4 hrs by reporter gene assay; assay type: functional, cell-based
[3] = molecular target: Voltage-gated inwardly rectifying potassium channel KCNH2 (Homo sapiens, UniProt Q12809); assay: Displacement of [3H]astemizole from human ERG by microbeta scintillation counting
[4] = Ratio of drug uptake in brain to plasma in Wistar rat at 10 mg/kg, po after 1 hr; assay type: ADME, organism-based; design: dose 10 mg/kg, route oral; conditions: read-out: BPR
[5] = AUC (0 to 24 hrs) in Wistar rat at 5 mg/kg, iv; assay type: ADME, organism-based; design: time < 24 hr, dose 5 mg/kg, route intravenous; conditions: plasma
[6] = Clearance in Wistar rat at 5 mg/kg, iv; assay type: ADME, organism-based; design: dose 5 mg/kg, route intravenous; conditions: in vivo
[7] = Half life in Wistar rat at 5 mg/kg, iv; assay type: ADME, organism-based; design: dose 5 mg/kg, route intravenous; conditions: in vivo
Cytochrome P450 2D6 = Cytochrome P450 2D6 (Homo sapiens, UniProt P10635); assay: Inhibition of CYP2D6 in human liver microsomes using dextromethorphan as substrate after 10 mins by LC-MS/MS analysis in presence of NADPH
[8] = Apparent volume of distribution in Wistar rat at 5 mg/kg, iv; assay type: ADME, organism-based; design: dose 5 mg/kg, route intravenous; conditions: in vivo, read-out: Vz
[9] = Oral bioavailability in fasted Wistar rat at 10 mg/kg; assay type: ADME, organism-based; conditions: in vivo
[10] = Tmax in fasted Wistar rat at 10 mg/kg, po; assay type: ADME, organism-based; design: dose 10 mg/kg, route oral; conditions: in vivo
[11] = Cmax in fasted Wistar rat at 10 mg/kg, po; assay type: ADME, organism-based; design: dose 10 mg/kg, route oral; conditions: in vivo
[12] = AUC (0 to 24 hrs) in fasted Wistar rat at 10 mg/kg, po; assay type: ADME, organism-based; design: time < 24 hr, dose 10 mg/kg, route oral; conditions: plasma
[13] = Drug metabolism in Wistar rat liver microsomes at 2.5 uM at 30 mins by LC-MS/MS analysis; assay type: ADME, Microsome; conditions: read-out: Drug metabolism
[14] = Drug metabolism in human liver microsomes at 2.5 uM at 30 mins by LC-MS/MS analysis; assay type: ADME, Microsome; conditions: read-out: Drug metabolism

Chain of 5-hydroxytryptamine receptor 6 (Homo sapiens) (P50406 whole entry): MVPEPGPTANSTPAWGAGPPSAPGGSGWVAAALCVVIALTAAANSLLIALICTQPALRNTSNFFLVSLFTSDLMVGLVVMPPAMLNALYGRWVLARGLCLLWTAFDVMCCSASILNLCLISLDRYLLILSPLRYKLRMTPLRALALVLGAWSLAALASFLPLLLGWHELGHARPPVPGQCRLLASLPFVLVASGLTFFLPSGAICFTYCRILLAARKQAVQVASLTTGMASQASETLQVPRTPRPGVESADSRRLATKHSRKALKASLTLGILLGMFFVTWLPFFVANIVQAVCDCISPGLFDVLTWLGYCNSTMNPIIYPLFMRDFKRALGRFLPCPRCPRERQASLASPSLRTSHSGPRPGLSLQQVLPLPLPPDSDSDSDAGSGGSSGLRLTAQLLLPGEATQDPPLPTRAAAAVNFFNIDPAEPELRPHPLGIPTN
Chain of Voltage-gated inwardly rectifying potassium channel KCNH2 (Q12809 whole entry): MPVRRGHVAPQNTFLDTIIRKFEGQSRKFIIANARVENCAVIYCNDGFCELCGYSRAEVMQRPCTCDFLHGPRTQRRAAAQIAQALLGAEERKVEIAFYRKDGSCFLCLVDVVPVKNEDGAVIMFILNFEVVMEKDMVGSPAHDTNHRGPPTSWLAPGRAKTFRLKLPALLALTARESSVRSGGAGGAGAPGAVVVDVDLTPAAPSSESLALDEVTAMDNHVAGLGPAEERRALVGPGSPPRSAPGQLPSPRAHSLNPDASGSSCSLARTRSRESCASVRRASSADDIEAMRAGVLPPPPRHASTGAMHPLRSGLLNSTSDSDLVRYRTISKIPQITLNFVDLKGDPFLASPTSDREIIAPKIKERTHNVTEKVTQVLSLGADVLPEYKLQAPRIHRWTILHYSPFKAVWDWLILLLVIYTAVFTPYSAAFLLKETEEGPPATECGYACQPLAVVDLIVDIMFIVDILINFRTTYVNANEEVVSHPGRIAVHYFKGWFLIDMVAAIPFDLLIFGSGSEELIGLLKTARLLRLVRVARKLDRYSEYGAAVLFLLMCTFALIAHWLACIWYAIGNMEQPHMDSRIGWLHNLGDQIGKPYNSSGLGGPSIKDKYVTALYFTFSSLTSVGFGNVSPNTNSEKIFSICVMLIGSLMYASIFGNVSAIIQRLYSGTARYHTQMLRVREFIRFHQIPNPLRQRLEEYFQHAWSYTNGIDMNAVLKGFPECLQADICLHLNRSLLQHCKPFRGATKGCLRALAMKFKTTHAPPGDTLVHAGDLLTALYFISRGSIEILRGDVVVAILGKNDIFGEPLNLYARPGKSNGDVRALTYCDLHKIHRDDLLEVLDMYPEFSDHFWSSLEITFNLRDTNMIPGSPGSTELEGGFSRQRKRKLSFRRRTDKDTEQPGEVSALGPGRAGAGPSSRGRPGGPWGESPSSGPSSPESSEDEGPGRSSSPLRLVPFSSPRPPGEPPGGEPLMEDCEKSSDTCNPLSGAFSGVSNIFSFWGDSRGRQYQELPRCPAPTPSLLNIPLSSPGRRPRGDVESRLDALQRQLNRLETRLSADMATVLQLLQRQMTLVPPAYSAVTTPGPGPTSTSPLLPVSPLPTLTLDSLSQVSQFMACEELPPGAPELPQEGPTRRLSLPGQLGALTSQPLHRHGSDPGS
Chain of Cytochrome P450 2D6 (P10635 whole entry): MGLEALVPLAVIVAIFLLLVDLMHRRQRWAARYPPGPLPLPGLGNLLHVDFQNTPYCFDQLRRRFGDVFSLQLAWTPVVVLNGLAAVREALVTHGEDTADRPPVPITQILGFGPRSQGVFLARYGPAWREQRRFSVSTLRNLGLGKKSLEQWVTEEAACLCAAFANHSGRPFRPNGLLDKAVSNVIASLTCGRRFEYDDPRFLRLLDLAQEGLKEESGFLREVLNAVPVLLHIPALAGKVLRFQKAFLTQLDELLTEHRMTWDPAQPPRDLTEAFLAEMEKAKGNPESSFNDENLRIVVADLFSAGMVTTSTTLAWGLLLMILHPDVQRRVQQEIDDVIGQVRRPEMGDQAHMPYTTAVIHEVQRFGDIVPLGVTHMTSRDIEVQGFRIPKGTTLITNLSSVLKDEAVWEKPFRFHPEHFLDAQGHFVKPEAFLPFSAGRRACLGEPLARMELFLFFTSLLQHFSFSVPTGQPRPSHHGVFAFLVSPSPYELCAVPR

| SMILES | Imax [1] [%] | Kb [2] [nM] | also measured |
| --- | --- | --- | --- |
| CN1CCC(Nc2cccc(S(=O)(=O)n3ccc4cc(Br)ccc43)c2)CC1 | 98 | 10.3 | – |
| CN1CCC(Nc2cc(S(=O)(=O)n3ccc4ccccc43)ccc2F)CC1 | 100 | 1.6 | – |
| CCc1ccc(S(=O)(=O)n2ccc3ccccc32)cc1NC1CCN(C)CC1 | 99 | 1.39 | – |
| COc1ccc(S(=O)(=O)n2ccc3cc(Br)ccc32)cc1NC1CCNCC1 | 99 | 3.2 | – |
| COc1ccc2c(ccn2S(=O)(=O)c2cccc(NC3CCN(C)CC3)c2)c1 | 96 | 12.5 | – |
| COc1ccc2c(C)cn(S(=O)(=O)c3ccc(OC)c(NC4CCN(C)CC4)c3)c2c1 | 100 | 0.1 | – |
| COc1ccc(S(=O)(=O)n2ccc3ccc(F)cc32)cc1NC1CCN(C)CC1 | 100 | 0.2 | – |
| COc1ccc(S(=O)(=O)N2CCOc3ccc(C(F)(F)F)cc32)cc1NC1CCN(C)CC1 | 100 | 0.1 | – |
| COc1ccc2c(ccn2S(=O)(=O)c2ccc(OC)c(NC3CCN(C)CC3)c2)c1 | 96 | 3.8 | – |
| COc1cnc2c(ccn2S(=O)(=O)c2ccc(OC)c(NC3CCN(C)CC3)c2)c1 | 90 | 12 | – |
| COc1ccc2ccn(S(=O)(=O)c3cccc(NC4CCN(C)CC4)c3)c2c1 | 100 | 1.2 | – |
| COc1ccc(S(=O)(=O)N2CC(C)(C)Oc3ccc(F)cc32)cc1NC1CCN(C)CC1 | 100 | 0.1 | – |
| Cc1cn(S(=O)(=O)c2ccc(F)c(NC3CCN(C)CC3)c2)c2ccccc12 | 100 | 0.52 | – |
| Cc1ccc(S(=O)(=O)n2ccc3cc(F)ccc32)cc1NC1CCN(C)CC1 | 97 | 7.5 | – |
| COc1cnc2c(c1)c(C)cn2S(=O)(=O)c1ccc(OC)c(NC2CCN(C)CC2)c1 | 95 | 2.3 | – |
| COc1ccc(S(=O)(=O)N2CCOc3ccc(C)cc32)cc1NC1CCN(C)CC1 | 100 | 0.1 | – |
| COc1ccc(S(=O)(=O)n2ccc3cc(OC(C)C)ccc32)cc1NC1CCN(C)CC1 | 100 | 2.2 | – |
| CN1CCC(Nc2cccc(S(=O)(=O)n3ccc4ccc(Cl)cc43)c2)CC1 | 98 | 2.39 | – |
| COc1ccc(S(=O)(=O)n2cc(C)c3cc(F)ccc32)cc1NC1CCN(C)CC1 | 100 | 0.52 | Ki [3]: 950 nM |
| CN1CCC(Nc2cccc(S(=O)(=O)n3ccc4ccccc43)c2)CC1 | 92 | 3.19 | – |
| COc1ccc(S(=O)(=O)n2ccc3ccc(F)cc32)cc1NC1CCNCC1 | 100 | 0.3 | – |
| COc1ccc2ccn(S(=O)(=O)c3ccc(OC)c(NC4CCN(C)CC4)c3)c2c1.O=P(O)(O)O | 100 | 0.1 | Kp at 1 h [4]: 0.6 |
| Cc1nn(S(=O)(=O)c2ccc(Cl)c(NC3CCN(C)CC3)c2)c2ccc(Cl)cc12 | 39 | 28.6 | – |
| COc1ccc(S(=O)(=O)n2cc(C)c3ccc(Cl)cc32)cc1NC1CCN(C)CC1 | 100 | 0.1 | – |
| COc1ccc(S(=O)(=O)n2cc(C)c3nc(Cl)ccc32)cc1NC1CCN(C)CC1 | 98 | 1.7 | – |
| COc1ccc(S(=O)(=O)n2ccc3ccccc32)cc1NC1CCN(C)CC1 | 100 | 1.22 | – |

| SMILES | Imax [1] [%] | Kb [2] [nM] | also measured |
| --- | --- | --- | --- |
| COc1ccc(S(=O)(=O)n2nc(C)c3cc(Cl)ccc32)cc1NC1CCN(C)CC1.O=C(O)C(O)C(O)C(=O)O | 100 | 0.6 | AUC(0-t) at 24 h [5]: 600 ng·h/mL; clearance [6]: 143 mL/min/kg; half-life [7]: 1.7 h; IC50 (Cytochrome P450 2D6): 14500 nM; Vd [8]: 16 L/kg; bioavailability [9]: 25%; Tmax [10]: 2 h; Kp at 1 h [4]: 0.5; Cmax [11]: 57 ng/mL; AUC(0-t) at 24 h [12]: 300 ng·h/mL; metabolised at 0.5 h, 2.5 µM [13]: 69%; metabolised at 0.5 h, 2.5 µM [14]: 60% |
| COc1ccc2ccn(S(=O)(=O)c3ccc(C)c(NC4CCN(C)CC4)c3)c2c1 | 98 | 0.25 | – |
| CN1CCC(Nc2cc(S(=O)(=O)n3ccc4cc(Br)ccc43)ccc2F)CC1 | 94 | 16 | – |
| COc1ccc(S(=O)(=O)N2CCc3ccccc3C2)cc1NC1CCN(C)CC1 | 98 | 0.07 | Kp at 1 h [4]: 0.24 |
| Cc1ccc(S(=O)(=O)n2cc(C)c3cc(Cl)cnc32)cc1NC1CCN(C)CC1 | 97 | 3.9 | – |
| COc1ccc(S(=O)(=O)N2CCOc3ccc(Cl)cc32)cc1NC1CCN(C)CC1 | 100 | 0.1 | AUC(0-t) at 24 h [5]: 1450 ng·h/mL; clearance [6]: 58 mL/min/kg; half-life [7]: 0.7 h; Vd [8]: 2.5 L/kg; bioavailability [9]: 12%; Tmax [10]: 0.5 h; Kp at 1 h [4]: 0.6; Cmax [11]: 197 ng/mL; AUC(0-t) at 24 h [12]: 384 ng·h/mL; metabolised at 0.5 h, 2.5 µM [13]: 85%; metabolised at 0.5 h, 2.5 µM [14]: 70% |
| COc1ccc(S(=O)(=O)n2ccc3cc(Cl)cnc32)cc1NC1CCN(C)CC1 | 98 | 0.15 | – |
| COc1ccc(S(=O)(=O)N2CCCc3ccccc32)cc1NC1CCN(C)CC1 | 100 | 0.06 | Kp at 1 h [4]: 0.02 |
| COc1ccc(S(=O)(=O)N2CCCc3ccccc32)cc1NC1CCNCC1 | 100 | 0.1 | – |
| COc1ccc(S(=O)(=O)N2CCOc3ccccc32)cc1NC1CCN(C)CC1 | 100 | 0.2 | Ki [3]: > 10000 nM |
| Cc1cn(S(=O)(=O)c2cccc(NC3CCN(C)CC3)c2)c2ncc(Cl)cc12 | 99 | 4 | – |
| COc1ccc(S(=O)(=O)n2cc(C)c3cc(Cl)cnc32)cc1NC1CCNCC1 | 97 | 0.1 | – |
| CCc1ccc(S(=O)(=O)n2ccc3cc(F)ccc32)cc1NC1CCN(C)CC1 | 95 | 18.3 | – |
| COc1ccc(S(=O)(=O)N2CCOc3ccc(F)cc32)cc1NC1CCN(C)CC1 | 100 | 0.1 | – |
| COc1ccc(S(=O)(=O)n2ccc3cc(Br)ccc32)cc1NC1CCN(C)CC1 | 97 | 1.91 | – |
| CCc1ccc(S(=O)(=O)n2ccc3ccc(Cl)cc32)cc1NC1CCN(C)CC1 | 98 | 5.3 | – |
| Cc1nn(S(=O)(=O)c2ccc(F)c(NC3CCN(C)CC3)c2)c2ccc(Cl)cc12 | 59 | 10.1 | – |
| COc1ccc(S(=O)(=O)n2cc(C)c3cc(Cl)ncc32)cc1NC1CCN(C)CC1 | 85 | 1.3 | – |
| COc1ccc2c(ccn2S(=O)(=O)c2ccc(F)c(NC3CCN(C)CC3)c2)c1 | 95 | 11.7 | – |
| COc1ccc(S(=O)(=O)n2ccc3cc(F)ccc32)cc1NC1CCNCC1 | 100 | 0.3 | – |
| COc1ccc(S(=O)(=O)n2ccc3ccc(Cl)cc32)cc1NC1CCN(C)CC1 | 100 | 0.14 | – |
| COc1ccc(S(=O)(=O)n2ccc3cc(Cl)ccc32)cc1NC1CCN(C)CC1 | 98 | 4.37 | – |
| CCc1ccc(S(=O)(=O)n2ccc3c(Cl)cccc32)cc1NC1CCN(C)CC1 | 90 | 12.8 | – |
| COc1ccc(S(=O)(=O)n2ccc3cc(F)ccc32)cc1NC1CCN(C)CC1 | 100 | 1.8 | – |
| COc1ccc2c(ccn2S(=O)(=O)c2ccc(C)c(NC3CCN(C)CC3)c2)c1 | 70 | 51.3 | – |
| COc1ccc2ccn(S(=O)(=O)c3ccc(Cl)c(NC4CCN(C)CC4)c3)c2c1 | 100 | 3.3 | – |
